Test: Tissue distribution of tritium-labeled WP1122 and 2-DG in lungs after intravenous administration (liquid scintillation counting)
Assay type: in vivo
Conditions: male Sprague-Dawley rats; for Detection of 2-DG and metabolites in lungs: i.v., 15, 30, 60 min, 6 and 24 hours post-dose
Method: Experimental procedures. The pharmacokinetic and tissue organ distribution of WP1122 and 2-DG labeled with tritium was analyzed in male Sprague-Dawley rats. Animals (n=3 per timepoint) were dosed intravenously with 2-DG or WP1122 at equimolar dose 0.2 and 0.13 g/kg for WP1122 and 2-DG respectively. The animals were euthanized at 15, 30, 60 min and 6- and 24-hours post-dose. The organs were extracted, rinsed with PBS and radioactivity was measured using Liquid Scintillation Counting (LCS).

Row | SMILES | Detection of 2-DG and metabolites in lungs | Presence of metabolites in lungs compared with 2-DG administration (i.v., all time points including 24 hours after administration) | Highest concentration of radiolabeled compounds in lungs relative to radioactivity from 2-DG administration (i.v., equimolar 0.2 g/kg WP1122 vs 0.13 g/kg 2-DG, 15 min post injection)
1 | CC(=O)OC[C@H]1OC(O)C[C@@H](OC(C)=O)[C@@H]1O (stereo partly drawn) [WP1122, ((2R,3S,4R)-4-acetoxy-3,6-dihydroxytetrahydro-2H-pyran-2-yl)methyl acetate] | detected in lungs in all tested time-points | Increased presence of metabolites | nearly three times higher
2 | OC[C@H]1OC(O)C[C@@H](O)[C@@H]1O (stereo partly drawn) [Example 2-DG, (4R,5S,6R)-6-(hydroxymethyl)tetrahydro-2H-pyran-2,4,5-triol, reference compound] | detected in lungs in all tested time-points | – | –

Source: US20230130134A1, “METHOD OF TREATING VIRAL INFECTIONS WITH HEXOSE TYPE MONOSACCHARIDES AND ANALOGS THEREOF” (Board of Regents, The University of Texas System, priority 2020, published 2023)
